Results published in patent US20220144839A1, “INDOLE AHR INHIBITORS AND USES THEREOF” (Ikena Oncology, Inc., priority 2018, published 2022).

Each compound was assayed against T1, AHR (UniProt P35869) (assay: DRE-Luciferase Reporter Assay (Alternate Method), Example 1B). Conditions: concentration which inhibits half of the luciferase activity induced by AHR activating ligand; DRE-luciferase reporter cell line.
T1 sequence (P35869 1-848): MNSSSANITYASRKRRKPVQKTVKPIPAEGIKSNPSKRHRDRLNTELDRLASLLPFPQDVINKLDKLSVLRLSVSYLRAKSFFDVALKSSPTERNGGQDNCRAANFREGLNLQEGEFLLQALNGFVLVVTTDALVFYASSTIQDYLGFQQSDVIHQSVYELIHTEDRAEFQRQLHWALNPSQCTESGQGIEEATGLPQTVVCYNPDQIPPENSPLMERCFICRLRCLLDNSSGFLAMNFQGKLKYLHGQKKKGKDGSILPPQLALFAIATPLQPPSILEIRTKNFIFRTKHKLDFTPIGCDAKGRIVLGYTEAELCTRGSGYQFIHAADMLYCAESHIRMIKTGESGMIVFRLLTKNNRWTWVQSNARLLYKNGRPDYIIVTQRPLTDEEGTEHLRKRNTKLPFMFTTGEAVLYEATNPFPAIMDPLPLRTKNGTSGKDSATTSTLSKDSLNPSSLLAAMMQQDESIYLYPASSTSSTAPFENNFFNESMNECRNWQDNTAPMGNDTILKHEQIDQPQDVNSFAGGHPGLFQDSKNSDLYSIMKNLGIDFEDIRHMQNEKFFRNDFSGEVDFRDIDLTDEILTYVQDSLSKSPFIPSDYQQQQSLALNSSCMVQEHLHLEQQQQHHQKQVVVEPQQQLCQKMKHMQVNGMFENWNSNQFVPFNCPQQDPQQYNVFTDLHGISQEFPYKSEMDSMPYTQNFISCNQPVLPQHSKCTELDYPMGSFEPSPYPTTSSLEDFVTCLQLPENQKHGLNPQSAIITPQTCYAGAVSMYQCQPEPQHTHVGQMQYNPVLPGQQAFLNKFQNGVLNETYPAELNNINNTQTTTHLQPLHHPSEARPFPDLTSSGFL
Format: cell-based
Description: AHR binds to Dioxin Responsive Elements (DRE) upstream of genes that it activates. One measure of AHR activity is activation of a reporter gene, such as luciferase, downstream of one or multiple DRE elements. Luciferase activity will reflect activation and inhibition of AHR in the cells expressing his reporter.
Murine Hepa1-6 or Hepa-1c1c7 or other murine cell line with a DRE-luciferase reporter either stably or transiently transfected were plated in media in plates (96-well, 384-well or other plates) and incubated overnight at 37° C. in a C02 incubator or compound and agonist were added at the time of plating. Likewise, human HepG2 or other human cell line with a DRE-luciferase reporter either stably or transiently transfected were plated in media in plates (96-well, 384-well or other plates) and incubated overnight at 37° C. in a C02 incubator or compound and agonist were added at the time of plating.
At the time that cells are plated or following incubation overnight, an AHR activating ligand, such as TCDD, kynurenine, ITE (2-(1H-indole-3-ylcarbonyl)-4-thiazolecarboxylic methyl ester), VAF347, BNF (beta-naphthoflavone), FICZ (6-formylindolo(3,2-b) carbazole or other AHR ligands, was added with or without AHR antagonist.
Cells were incubated for 4, 15 or 24 hours or another time point and then lysed for determination of luciferase activity as a read-out of the AHR activation or inhibition. Luciferase was measured with a commercial kit such as the Promega Luciferase kit or any kit or reagents that provide the luciferin substrate for measuring luciferase activity. The level of luciferase with only activating ligand added was the maximum signal while the luciferase with no ligand was the minimum signal. IC50 values were determined as the concentration which inhibits half of the luciferase activity.

`CC(C)c1cnn2c(N[C@@H]3CCc4[nH]c5ccccc5c4C3)nc(-c3ccn(C)c(=O)c3)nc12` [Compound I-1, 4-[8-Isopropyl-4-[[(3R)-2,3,4,9-tetrahydro-1H-carbazol-3-yl]amino]pyrazolo[1,5-a][1,3,5]triazin-2-yl]-1-methyl-pyridin-2-one] and `COc1cncc(-c2nc(N[C@@H]3CCc4[nH]c5ccccc5c4C3)n3ncc(C(C)C)c3n2)c1` [Compound I-3, (3R)—N-[8-Isopropyl-2-(5-methoxy-3-pyridyl)pyrazolo[1,5-a][1,3,5]triazin-4-yl]-2,3,4,9-tetrahydro-1H-carbazol-3-amine] cannot be ordered by IC50: > 1500 nM for the first, > 1500 nM for the second.

`CC(C)c1cnn2c(N[C@@H]3CCc4[nH]c5ccccc5c4C3)nc(-c3ccc(N4CCOCC4)nc3)nc12` [Compound I-2, (3R)—N-[8-Isopropyl-2-(6-morpholino-3-pyridyl)pyrazolo[1,5-a][1,3,5]triazin-4-yl]-2,3,4,9-tetrahydro-1H-carbazol-3-amine] and `CC(C)c1cnn2c(N[C@@H]3CCc4[nH]c5ccccc5c4C3)nc(-c3ccc(N(C)C)nc3)nc12` [Compound I-6, (3R)—N-[2-[6-(dimethylamino)-3-pyridyl]-8-isopropyl-pyrazolo[1,5-a][1,3,5]triazin-4-yl]-2,3,4,9-tetrahydro-1H-carbazol-3-amine] cannot be ordered by IC50: > 1500 nM for the first, > 1500 nM for the second.

`NCc1cnn2c(N[C@@H]3CCc4[nH]c5ccccc5c4C3)nc(-c3cncc(F)c3)nc12` [Compound I-4, (3R)—N-[8-(Aminomethyl)-2-(5-fluoro-3-pyridyl)pyrazolo[1,5-a][1,3,5]triazin-4-yl]-2,3,4,9-tetrahydro-1H-carbazol-3-amine] and `C=C(C)c1cnn2c(N[C@@H]3CCc4[nH]c5ccccc5c4C3)nc(-c3cncc(F)c3)nc12` [Compound I-11, (3R)—N-[2-(5-Fluoro-3-pyridyl)-8-isopropenyl-pyrazolo[,5-a][1,3,5]triazin-4-yl]-2,3,4,9-tetrahydro-1H-carbazol-3-amine] cannot be ordered by IC50: < 500 nM for the first, < 500 nM for the second.

First: CC(C)c1cnn2c(N[C@@H]3CCc4[nH]c5ccccc5c4C3)nc(-c3cncc(N(C)C)c3)nc12 [Compound I-5, (3R)—N-[2-[5-(Dimethylamino)-3-pyridyl]-8-isopropyl-pyrazolo[1,5-a][1,3,5]triazin-4-yl]-2,3,4,9-tetrahydro-1H-carbazol-3-amine]
Second: CC(C)(O)c1cnn2c(N[C@@H]3CCc4[nH]c5ccccc5c4C3)nc(-c3cncc(F)c3)nc12 [Compound I-9, 2-[2-(5-Fluoro-3-pyridyl)-4-[[(3R)-2,3,4,9-tetrahydro-1H-carbazol-3-yl]amino]pyrazolo[1,5-a][1,3,5]triazin-8-yl]propan-2-ol]
The IC50 of the first is higher: > 1500 nM for the first, < 500 nM for the second. The second is the more potent here.

First: CC(C)c1cnn2c(N[C@@H]3CCc4[nH]ncc4C3)nc(-c3cncc(F)c3)nc12 [Compound I-7a, 2-(5-fluoro-3-pyridyl)-8-isopropyl-N-[(5R)-4,5,6,7-tetrahydro-1H-indazol-5-yl]pyrazolo[1,5-a][1,3,5]triazin-4-amine]
Second: CC(C)c1cnn2c(N[C@H]3CCc4[nH]ncc4C3)nc(-c3cncc(F)c3)nc12 [Compound I-7b, 2-(5-fluoro-3-pyridyl)-8-isopropyl-N-[(5S)-4,5,6,7-tetrahydro-1H-indazol-5-yl]pyrazolo[1,5-a][1,3,5]triazin-4-amine]
The IC50 of the first is higher: > 1500 nM for the first, 1000 to 1500 nM for the second.

`CC(C)c1cnn2c(N[C@H]3CCc4[nH]c5cccnc5c4C3)nc(-c3cncc(F)c3)nc12` [Compound I-8a, (8S)—N-[2-(5-Fluoro-3-pyridyl)-8-isopropyl-pyrazolo[1,5-a][1,3,5]triazin-4-yl]-6,7,8,9-tetrahydro-5H-pyrido[3,2-b]indol-8-amine] and `CC(C)c1cnn2c(N[C@@H]3CCc4[nH]c5cccnc5c4C3)nc(-c3cncc(F)c3)nc12` [Compound I-8b, (8R)—N-[2-(5-Fluoro-3-pyridyl)-8-isopropyl-pyrazolo[1,5-a][1,3,5]triazin-4-yl]-6,7,8,9-tetrahydro-5H-pyrido[3,2-b]indol-8-amine] fall in the same range of IC50: 1000 to 1500 nM for the first, 1000 to 1500 nM for the second.

`Fc1cncc(-c2nc(N[C@@H]3CCc4[nH]c5ccccc5c4C3)n3ncc(-c4cnn[nH]4)c3n2)c1` [Compound I-10, (3R)—N-[2-(5-Fluoro-3-pyridyl)-8-(1H-triazol-5-yl)pyrazolo[1,5-a][1,3,5]triazin-4-yl]-2,3,4,9-tetrahydro-1H-carbazol-3-amine] and `Fc1cncc(-c2nc(N[C@@H]3CCc4[nH]c5ccccc5c4C3)n3ncc(C4CCOC4)c3n2)c1` (stereo partly drawn) [Compound I-18, (3R)—N-[2-(5-fluoro-3-pyridyl)-8-tetrahydrofuran-3-yl-pyrazolo[1,5-a][1,3,5]triazin-4-yl]-2,3,4,9-tetrahydro-1H-carbazol-3-amine] cannot be ordered by IC50: < 500 nM for the first, < 500 nM for the second.

First: CC(C)c1cnn2c(N[C@@H]3CCc4[nH]c5ccccc5c4C3)nc(-n3cnc4ccccc43)nc12 [Compound I-12, (3R)—N-[2-(Benzimidazol-1-yl)-8-isopropyl-pyrazolo[1,5-a][1,3,5]triazin-4-yl]-2,3,4,9-tetrahydro-1H-carbazol-3-amine]
Second: Cc1nccn1-c1nc(N[C@@H]2CCc3[nH]c4ccccc4c3C2)n2ncc(C(C)C)c2n1 [Compound I-19, (3R)—N-[8-Isopropyl-2-(2-methylimidazol-1-yl)pyrazolo[1,5-a][1,3,5]triazin-4-yl]-2,3,4,9-tetrahydro-1H-carbazol-3-amine]
The IC50 of the first is lower: 1000 to 1500 nM for the first, > 1500 nM for the second.

`CC(C)c1cnn2c(N[C@@H]3CCc4[nH]c5cnccc5c4C3)nc(-c3cncc(F)c3)nc12` [Compound I-13a, (6R)—N-[2-(5-fluoro-3-pyridyl)-8-isopropyl-pyrazolo[1,5-a][1,3,5]triazin-4-yl]-6,7,8,9-tetrahydro-5H-pyrido[3,4-b]indol-6-amine] and `CC(C)c1cnn2c(N[C@H]3CCc4[nH]c5cnccc5c4C3)nc(-c3cncc(F)c3)nc12` [Compound I-13b, (6S)—N-[2-(5-fluoro-3-pyridyl)-8-isopropyl-pyrazolo[1,5-a][1,3,5]triazin-4-yl]-6,7,8,9-tetrahydro-5H-pyrido[3,4-b]indol-6-amine] cannot be ordered by IC50: > 1500 nM for the first, > 1500 nM for the second.

Compared with `Cc1cnc2c(N[C@@H]3CCc4[nH]c5ccccc5c4C3)nc(-c3cncc(F)c3)nc2c1` [Compound I-14, (3R)—N-[2-(5-fluoro-3-pyridyl)-7-methyl-pyrido[3,2-d]pyrimidin-4-yl]-2,3,4,9-tetrahydro-1H-carbazol-3-amine], `CC(C)c1cnn2c(N[C@@H]3CCc4[nH]c5ccccc5c4C3)nc(-n3cncn3)nc12` [Compound I-16, (3R)—N-[8-Isopropyl-2-(1,2,4-triazol-1-yl)pyrazolo[1,5-a][1,3,5]triazin-4-yl]-2,3,4,9-tetrahydro-1H-carbazol-3-amine] is higher in IC50: 1000 to 1500 nM for the first, > 1500 nM for the second.

`CC(C)c1cnn2c(N[C@@H]3CCc4[nH]c5ccccc5c4C3)nc([C@@H]3CCCOC3)nc12` [Compound I-15a, (3R)—N-(8-isopropyl-2-tetrahydropyran-3-yl-pyrazolo[1,5-a][1,3,5]triazin-4-yl)-2,3,4,9-tetrahydro-1H-carbazol-3-amine] and `CC(C)c1cnn2c(N[C@@H]3CCc4[nH]c5ccccc5c4C3)nc([C@H]3CCCOC3)nc12` [Compound I-15b, (3R)—N-[8-isopropyl-2-[(3R)-tetrahydropyran-3-yl]pyrazolo[1,5-a][1,3,5]triazin-4-yl]-2,3,4,9-tetrahydro-1H-carbazol-3-amine] cannot be ordered by IC50: > 1500 nM for the first, > 1500 nM for the second.

`CC(C)c1cnn2c(N[C@@H]3CCc4[nH]c5ccccc5c4C3)nc(C3CCOC3)nc12` (stereo partly drawn) [Compound I-17, (3R)—N-(8-isopropyl-2-tetrahydrofuran-3-yl-pyrazolo[1,5-a][1,3,5]triazin-4-yl)-2,3,4,9-tetrahydro-1H-carbazol-3-amine] was tested, and the IC50 was 500 to 1000 nM.
